Reference: patent US20260256792A1, “TREATMENT OF CHRONIC SPONTANEOUS URTICARIA BY ADMINISTERING (R)-2-[3-[4-AMINO-3-(2-FLUORO-4-PHENOXY-PHENYL)PYRAZOLO[3,4-D]PYRIMIDIN-1-YL]PIPERIDINE-1-CARBONYL]-4-METHYL-4-[4-(OXETAN-3-YL)PIPERAZIN-1-YL]PENT-2-ENENITRILE” (priority 2023, published 2026)

System: moderate-to-severe chronic spontaneous urticaria (CSU)
Test: Phase 2 CSU study: urticaria activity score over 7 days (UAS7)
Format: in vivo, human
Set-up: key to UAS7 Median / UAS7 Change from baseline Median / UAS7 change from baseline, Q1 / UAS7 change from baseline, Q3 / UAS7 change from baseline, Max / UAS7 Change from baseline LS Mean (SE): UAS7 points; daily UAS score ranges 0–6 points/day, over 7 days
Settings: for UAS7 change from baseline at Week 12, LS Mean (SE): ANCOVA; for LS mean change in UAS7 from baseline to Week 12 (see Table 18): sentence on reductions following one week of treatment; for UAS7 Change from baseline Mean (SD) / UAS7 Change from baseline Median / UAS7 Percent change from baseline Mean (SD) / UAS7 Percent change from baseline Median / UAS7 change from baseline, Max / UAS7 change from baseline, Min / UAS7 change from baseline, Q1 / UAS7 change from baseline, Q3 / UAS7 percent change from baseline, Max / UAS7 percent change from baseline, Min / UAS7 percent change from baseline, Q1 / UAS7 percent change from baseline, Q3: double-blind period, last week block of Table 17 (week heading not shown); for participants with UAS7 of 0 / participants with UAS7 of ≤6: Week 12, omalizumab-naïve; for UAS7 Mean (SD) / UAS7 Median: End of Study; for UAS7 % Change difference for rilzabrutinib vs. placebo LS Mean (95% CI) / UAS7 % Change from baseline LS Mean (SE) / UAS7 Change difference for rilzabrutinib vs. placebo LS Mean (95% CI) / UAS7 Change from baseline LS Mean (SE): ITT Population
Text: The study comprises a 12 week, randomized, double-blind, placebo-controlled, multi-center, dose-ranging efficacy and safety phase, followed by a 40 week open label extension (OLE) phase (see FIG. 1). The study consists of three phases and an optional OLE phase. […] Clinically, CSU is characterized by the spontaneous and recurrent appearance of pruritic hives. The proposed primary endpoints were the UAS7 at Week 12 in EU and EU reference countries and the ISS7 in the US. Regardless of where a participant was from, all assessments were the same. The UAS7 score is a composite score containing both the HSS7 and the ISS7. This allowed a global assessment of the two key components of urticaria: hives and itch. […] The UAS is a validated PRO measure. […] The daily UAS scores range from 0 to 6 point/day. […] Patients were to complete the UAS using the e-diary. […] The following secondary endpoints were to be analyzed using the same approach as for the primary endpoint: • Change from baseline in UAS7 at Week 4 • Change from baseline in UAS7 at Week 12 (for US and US reference countries) • Change from baseline in ISS7 at Week 12 (except US and US reference countries) • Change from baseline in HSS7 at Week 12 The following responder secondary endpoints were to be analyzed using the Cochran-Mantel-Haenszel test adjusted by region: • Proportion of participants with UAS7<6 at Week 12 • Proportion of participants with UAS7=0 at Week 12 Participants who received selected prohibited medications and/or rescue medications were to be considered as non-responders for time points after the medication usage. For other participants, all available data including those collected during the off-treatment period were to be used to determine the responder/non-responder status. Missing data were to be considered as non-responders.

[1] = 400 mg BID, Omalizumab-Naïve Population (N = 35), n observed/imputed 5 (3/2)
[2] = 400 mg BID, omalizumab-naïve population
[3] = 400 mg BID, omalizumab-naïve population with outlier removed
[4] = 400 mg QPM, Omalizumab-Naïve Population (N = 37), n observed/imputed 7 (3/4)
[5] = 400 mg QPM, omalizumab-naïve population
[6] = 400 mg QPM, omalizumab-naïve population with outlier removed
[7] = 400 mg TID, Omalizumab-Naïve Population (N = 35), n observed/imputed 5 (3/2)
[8] = 400 mg TID, Patients with Prior Omalizumab Use, Including Omalizumab-Incomplete Responders (N = 6), n observed/imputed 2 (0/2)
[9] = 400 mg TID, omalizumab-naïve population
[10] = 400 mg TID, omalizumab-naïve population with outlier removed
[11] = 400 mg TID, Prior Omalizumab Use

## CC(C)(C=C(C#N)C(=O)N1CCC[C@@H](n2nc(-c3ccc(Oc4ccccc4)cc3F)c3c(N)ncnc32)C1)N1CCN(C2COC2)CC1 [rilzabrutinib, (R)-2-[3-[4-amino-3-(2-fluoro-4-phenoxy-phenyl)pyrazolo[3,4-d]pyrimidin-1-yl]piperidine-1-carbonyl]-4-methyl-4-[4-(oxetan-3-yl)piperazin-1-yl]pent-2-enenitrile]
400 mg BID
  improvement compared to placebo across all endpoints: positive improvements across all endpoints
  participants with UAS7 of 0: 14.3%
  participants with UAS7 of ≤6: 20.0%
400 mg BID, ITT population
  UAS7 at Week 12, Mean (SD): 14.70 (14.29)
  UAS7 at Week 12, Median: 12.00
  UAS7 change from baseline at Week 12, LS Mean Diff vs. placebo (95% CI): −3.62 (−8.87, 1.63)
  UAS7 change from baseline at Week 12, Mean (SD): −16.02 (13.29) ^
  UAS7 change from baseline at Week 12, Median: −13.50
  UAS7 change from baseline at Week 12, LS Mean (SE): −14.82 (1.98)
  LS mean change in UAS7 from baseline to Week 12 (see Table 18): −10.01
[1]
  UAS7 Change from baseline Mean (SD): −14.40 (13.79)
  UAS7 Change from baseline Median: −13.00
  UAS7 Percent change from baseline Mean (SD): −51.30 (48.04) %
  UAS7 Percent change from baseline Median: −48.15%
  UAS7 change from baseline, Max: 0.0
  UAS7 change from baseline, Min: −29.0
  UAS7 change from baseline, Q1: −28.00
  UAS7 change from baseline, Q3: −2.00
  UAS7 percent change from baseline, Max: 0.0%
  UAS7 percent change from baseline, Min: −100.0%
  UAS7 percent change from baseline, Q1: −100.00%
  UAS7 percent change from baseline, Q3: −8.33%
[2]
  LS mean reduction in UAS7 from baseline to Week 12 (see Table 19): −9.79
  UAS7 at Week 12, Mean (SD): 15.61 (13.91)
  UAS7 at Week 12, Median: 14.00
  UAS7 change from baseline at Week 12, LS Mean Diff vs. placebo (95% CI): −4.09 (−9.59, 1.40)
  UAS7 change from baseline at Week 12, Mean (SD): −14.49 (12.08) ^
  UAS7 change from baseline at Week 12, Median: −12.80
  UAS7 change from baseline at Week 12, LS Mean (SE): −14.24 (2.06)
[3]
  UAS7 at Week 12, Mean (SD): 15.61 (13.91)
  UAS7 at Week 12, Median: 14.00
  UAS7 change from baseline at Week 12, LS Mean Diff vs. placebo (95% CI): −4.29 (−9.74, 1.16)
  UAS7 change from baseline at Week 12, Mean (SD): −14.49 (12.08) ^
  UAS7 change from baseline at Week 12, Median: −12.80
  UAS7 change from baseline at Week 12, LS Mean (SE): −14.30 (2.06)
400 mg QPM
  difference to placebo across endpoints: no difference
400 mg QPM, ITT population
  UAS7 at Week 12, Mean (SD): 21.80 (10.94)
  UAS7 at Week 12, Median: 22.40
  UAS7 change from baseline at Week 12, LS Mean Diff vs. placebo (95% CI): 0.97 (−4.40, 6.34)
  UAS7 change from baseline at Week 12, Mean (SD): −11.04 (9.56)
  UAS7 change from baseline at Week 12, Median: −9.40
  UAS7 change from baseline at Week 12, LS Mean (SE): −10.22 (2.01)
[4]
  UAS7 Change from baseline Mean (SD): −21.44 (16.26)
  UAS7 Change from baseline Median: −28.00
  UAS7 Percent change from baseline Mean (SD): −66.12 (46.34) %
  UAS7 Percent change from baseline Median: −86.67%
  UAS7 change from baseline, Max: 0.3
  UAS7 change from baseline, Min: −38.0
  UAS7 change from baseline, Q1: −36.40
  UAS7 change from baseline, Q3: 0.00
  UAS7 percent change from baseline, Max: 1.1%
  UAS7 percent change from baseline, Min: −100.0%
  UAS7 percent change from baseline, Q1: −100.00%
  UAS7 percent change from baseline, Q3: 0.00%
[5]
  UAS7 at Week 12, Median: 22.87
  UAS7 change from baseline at Week 12, LS Mean Diff vs. placebo (95% CI): 0.40 (−5.08, 5.89)
  UAS7 change from baseline at Week 12, Mean (SD): −10.57 (9.36)
  UAS7 change from baseline at Week 12, Median: −8.70
  UAS7 change from baseline at Week 12, LS Mean (SE): −9.74 (2.00) ^
[6]
  UAS7 at Week 12, Median: 22.87
  UAS7 change from baseline at Week 12, LS Mean Diff vs. placebo (95% CI): 0.08 (−5.29, 5.46)
  UAS7 change from baseline at Week 12, Mean (SD): −10.57 (9.36)
  UAS7 change from baseline at Week 12, Median: −8.70
  UAS7 change from baseline at Week 12, LS Mean (SE): −9.93 (1.96) ^
400 mg TID arm
  patients with improvement in the weekly UAS7: all patients except for one showed improvement
400 mg TID, ITT population
  UAS7 at Week 12, Median: 9.00
  UAS7 change from baseline at Week 12, LS Mean Diff vs. placebo (95% CI): −6.76 (−12.01, −1.51)
  UAS7 change from baseline at Week 12, Mean (SD): −20.30 (12.41) ^
  UAS7 change from baseline at Week 12, Median: −20.33
  UAS7 change from baseline at Week 12, LS Mean (SE): −17.95
  LS mean change in UAS7 from baseline to Week 12 (see Table 18): −12.72
400 mg TID, ITT population, listed as Rilzabrutinib
  UAS7 change from baseline at Week 12, LS Mean (SE): −17.95 (1.95)
400 mg TID, ITT population, belongs to LS mean change −12.72
  decrease from baseline in UAS7: 40.18%
[7]
  UAS7 Change from baseline Mean (SD): −11.40 (6.62)
  UAS7 Change from baseline Median: −14.00
  UAS7 Percent change from baseline Mean (SD): −38.24 (25.31) %
  UAS7 Percent change from baseline Median: −45.95%
  UAS7 change from baseline, Max: 0.0
  UAS7 change from baseline, Min: −17.0
  UAS7 change from baseline, Q1: −14.00
  UAS7 change from baseline, Q3: −12.00
  UAS7 percent change from baseline, Max: 0.0%
  UAS7 percent change from baseline, Q1: −50.00%
  UAS7 percent change from baseline, Q3: −28.57%
[8]
  UAS7 Change from baseline Mean (SD): −3.50 (4.95)
  UAS7 Change from baseline Median: −3.50
  UAS7 Percent change from baseline Mean (SD): −21.88 (30.94) %
  UAS7 Percent change from baseline Median: −21.88%
  UAS7 change from baseline, Max: 0.0
  UAS7 change from baseline, Min: −7.0
  UAS7 change from baseline, Q1: −7.00
  UAS7 change from baseline, Q3: 0.00
  UAS7 percent change from baseline, Max: 0.0%
  UAS7 percent change from baseline, Min: −43.8%
  UAS7 percent change from baseline, Q1: −43.75%
  UAS7 percent change from baseline, Q3: 0.00%
400 mg TID
  participants with UAS7 of 0: 20.0%
  participants with UAS7 of ≤6: 34.3%
[9]
  LS mean reduction in UAS7 from baseline to Week 12 (see Table 19): −11.44
  UAS7 at Week 12, Mean (SD): 11.00 (9.90)
  UAS7 at Week 12, Median: 12.25
  UAS7 change from baseline at Week 12, LS Mean Diff vs. placebo (95% CI): −6.75 (−12.23, −1.26)
  UAS7 change from baseline at Week 12, Mean (SD): −19.04 (11.40) ^
  UAS7 change from baseline at Week 12, Median: −18.92
  UAS7 change from baseline at Week 12, LS Mean (SE): −16.89
[10]
  UAS7 at Week 12, Mean (SD): 11.00 (9.90)
  UAS7 at Week 12, Median: 12.25
  UAS7 change from baseline at Week 12, LS Mean Diff vs. placebo (95% CI): −7.50 (−13.02, −1.97)
  UAS7 change from baseline at Week 12, Mean (SD): −19.04 (11.40) ^
  UAS7 change from baseline at Week 12, Median: −18.92
  UAS7 change from baseline at Week 12, LS Mean (SE): −17.50
400 mg TID, omalizumab-naïve population with outlier removed, listed as Rilzabrutinib
  UAS7 change from baseline at Week 12, LS Mean (SE): −17.50 (2.06)
400 mg TID, omalizumab-naïve population, listed as Rilzabrutinib
  UAS7 change from baseline at Week 12, LS Mean (SE): −16.89 (2.04)
400 mg BID, Omalizumab-Naïve
  UAS7 Mean (SD): 15.60 (17.52)
  UAS7 Median: 14.00
400 mg QPM, Omalizumab-Naïve
  UAS7 Mean (SD): 11.70 (16.82)
  UAS7 Median: 5.00
400 mg TID, Omalizumab-Naïve
  UAS7 Mean (SD): 21.40 (11.74)
  UAS7 Median: 20.00
[11]
  UAS7 Mean (SD): 15.58 (9.31)
  UAS7 Median: 15.58
400 mg BID, Week 2
  UAS7 % Change difference for rilzabrutinib vs. placebo LS Mean (95% CI): −17.26%
  UAS7 % Change from baseline LS Mean (SE): −36.13%
  UAS7 Change difference for rilzabrutinib vs. placebo LS Mean (95% CI): −4.49
  UAS7 Change from baseline LS Mean (SE): −10.82
400 mg QPM, Week 3
  UAS7 % Change difference for rilzabrutinib vs. placebo LS Mean (95% CI): −7.92%
  UAS7 % Change from baseline LS Mean (SE): −29.55%
  UAS7 Change difference for rilzabrutinib vs. placebo LS Mean (95% CI): −1.91
  UAS7 Change from baseline LS Mean (SE): −9.50
400 mg QPM, Week 5
  UAS7 % Change difference for rilzabrutinib vs. placebo LS Mean (95% CI): −0.72%
  UAS7 % Change from baseline LS Mean (SE): −32.52%
  UAS7 Change difference for rilzabrutinib vs. placebo LS Mean (95% CI): −0.26
